Test results from patent US11535643B2, “Macrolides with modified desosamine sugars and uses thereof” (President and Fellows of Harvard College, priority 2015, dated 2022).
Values after ≈ are worked out from the molar mass of the structure shown.

Assays:
Format in all cases: cell-based
S. pyogenes = test: Broth dilution MIC determination (CLSI) against S. pyogenes strains
Text: (§1) Minimum inhibitory concentrations (MICs) for macrolides described herein have been determined for unique strains of S. aureus, S. pneumoniae, S. pyogenes, E. faecalis, E. coli, A. baumannii, K. pneumoniae, P. aeruginosa, and H. influenzae, including several multidrug-resistant strains, with a special focus on macrolide resistant mechanisms. Azithromycin and solithromycin were included as control compounds. CLSI standard procedures for broth dilution MIC determination were used. Data for exemplary compounds described herein is shown in Tables M1-M7 and in Tables N1-N4.

S. pneumoniae = test: Broth dilution MIC determination (CLSI) against S. pneumoniae strains
Text: as §1

A. baumannii = test: Broth dilution MIC determination (CLSI) against A. baumannii strains
Outline: (§2)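 Following CLSI procedures, broth dilution is used to find the MIC for each strain. Controls: azithromycin and solithromycin.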

P. aeruginosa = test: Broth dilution MIC determination (CLSI) against P. aeruginosa strains
Outline: as §2

K. pneumoniae = test: Broth dilution MIC determination (CLSI) against K. pneumoniae strains
Outline: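 Azithromycin and solithromycin served as controls; MICs were obtained by standard CLSI broth dilution on a strain panel including multidrug-resistant and macrolide-resistant isolates.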

E. coli = test: Broth dilution MIC determination (CLSI) against E. coli strains
Outline: as §2

S. aureus = test: Broth dilution MIC determination (CLSI) against S. aureus strains
Outline: as §2

E. faecalis = test: Broth dilution MIC determination (CLSI) against E. faecalis strains
Text: as §1

Question: For `CCC1OC(=O)C(C)C(=O)C(C)C(OC2OC(C)CC(N(C)Cc3cccnc3)C2O)C(C)(OC)CC(C)CNC(C)C2N(CCCCn3cc(-c4cccc(N)c4)nn3)C(=O)OC12C` (stereo not drawn) [FSM-120385], which MIC (S. pyogenes; S. pyogenes ATCC19615, strain MP-19 (Table N2)) is on record?
Answer: <0.03 µg/mL

Question: What about the MIC (S. pyogenes; S. pyogenes mac resistant, strain MP-625 UNT-014 (Table N2)) of the same compound?
Answer: 1 µg/mL (≈ 1.1 µM)

Question: And the MIC (S. pneumoniae; S. pneumoniae ATCC49619, strain MP-21 (Table N2))?
Answer: 0.06 µg/mL (≈ 0.0663 µM)

Question: What about the MIC (S. pneumoniae; S. pneumoniae mefA, strain MP-626 UNT-038 (Table N2)) of the same compound?
Answer: 0.125 µg/mL (≈ 0.138 µM)

Question: And the MIC (S. pneumoniae; S. pneumoniae mefA, strain MP-627 UNT-039 (Table N2))?
Answer: 0.25 µg/mL (≈ 0.276 µM)

Question: What about the MIC (A. baumannii; A. baumannii ATCC19606, strain MP-15 (Table N2)) of the same compound?
Answer: 16 µg/mL (≈ 17.7 µM)

Question: What about the MIC (A. baumannii; A. baumannii clinical, strain MP576 (Table N2)) of the same compound?
Answer: >64 µg/mL

Question: What about the MIC (A. baumannii; A. baumannii clinical, strain MP577 (Table N2)) of the same compound?
Answer: 64 µg/mL (≈ 70.7 µM)

Question: And the MIC (P. aeruginosa; P. aeruginosa ATCC27853, strain MP-3 (Table N2))?
Answer: >64 µg/mL

Question: What about the MIC (P. aeruginosa; P. aeruginosa PAO1, strain MP-7 (Table N2)) of the same compound?
Answer: >64 µg/mL

Question: What about the MIC (P. aeruginosa; P. aeruginosa PAO1:mex, strain MP-8 (Table N2)) of the same compound?
Answer: 32 µg/mL (≈ 35.4 µM)

Question: And the MIC (K. pneumoniae; K pneumomae ATCC10031, strain MP-14 (Table N2))?
Answer: 8 µg/mL (≈ 8.84 µM)

Question: And the MIC (K. pneumoniae; K. pneumoniae clinical, strain MP546 (Table N2))?
Answer: >64 µg/mL

Question: What about the MIC (K. pneumoniae; K. pneumoniae clinical, strain MP548 (Table N2)) of the same compound?
Answer: >64 µg/mL

Question: And the MIC (E. coli; E. coli ATCC25922, strain MP-4 (Table N2))?
Answer: 64 µg/mL (≈ 70.7 µM)

Question: What about the MIC (E. coli; E. coli ATCC25922:tolC, strain MP-9 (Table N2)) of the same compound?
Answer: 4 µg/mL (≈ 4.42 µM)

Question: What about the MIC (E. coli; E. coli clinical, strain MP541 (Table N2)) of the same compound?
Answer: 64 µg/mL (≈ 70.7 µM)

Question: What about the MIC (E. coli; E. coli clinical-cErm, strain MP532 (Table N2)) of the same compound?
Answer: >64 µg/mL

Question: And the MIC (S. aureus; S. aureus (MRSA) GISA USA600, strain MP-619 UNT-120 (Table N2))?
Answer: >64 µg/mL

Question: And the MIC (S. aureus; S. aureus (MRSA) ST-228 cErm, strain MP-513 (Table N2))?
Answer: >64 µg/mL

Question: And the MIC (S. aureus; S. aureus (MRSA) USA100, strain MP-618 UNT-096 (Table N2))?
Answer: >64 µg/mL

Question: And the MIC (S. aureus; S. aureus (MRSA) USA300, strain MP-549 (Table N2))?
Answer: 16 µg/mL (≈ 17.7 µM)

Question: And the MIC (S. aureus; S. aureus (MRSA) ermA phenotype, strain MP-620 UNT-146 (Table N2))?
Answer: >64 µg/mL

Question: What about the MIC (S. aureus; S. aureus ATCC29213, strain MP-12 (Table N2)) of the same compound?
Answer: 4 µg/mL (≈ 4.42 µM)

Question: And the MIC (S. aureus; S. aureus ATCCBAA-977, strain MP-17 (Table N2))?
Answer: 4 µg/mL (≈ 4.42 µM)

Question: What about the MIC (E. faecalis; E. faecalis ATCC29212, strain MP-24 (Table N2)) of the same compound?
Answer: 1 µg/mL (≈ 1.1 µM)

Question: And the MIC (E. faecalis; E. faecalis van resistant, strain UNT-039 (Table N2))?
Answer: >64 µg/mL

Question: What does the source list for `CCC1OC(=O)C(C)C(=O)C(C)C(OC2OC(CNCc3ccc(F)cc3)CC(N(C)C)C2O)C(C)(OC)CC(C)CNC(C)C2N(CCCCn3cc(-c4cccc(N)c4)nn3)C(=O)OC12C` (stereo not drawn) [FSM-120391]?
Answer: MIC S. pyogenes ATCC19615 (S. pyogenes; ATCC19615, Strain No. MP-19): <0.03 µg/mL; MIC S. pyogenes mac resistant (S. pyogenes; mac resistant, Strain No. MP-625 UNT-014): 0.5 µg/mL (≈ 0.526 µM); MIC S. pneumoniae ATCC49619 (S. pneumoniae; ATCC49619, Strain No. MP-21): <0.03 µg/mL; MIC S. pneumoniae mefA (S. pneumoniae; Strain No. MP-626 UNT-038): 0.06 µg/mL (≈ 0.0631 µM); MIC S. pneumoniae mefA (S. pneumoniae; Strain No. MP-627 UNT-039): 0.125 µg/mL (≈ 0.131 µM); MIC A. baumannii ATCC19606 (A. baumannii; ATCC19606, Strain No. MP-15): 64 µg/mL (≈ 67.3 µM); MIC A. baumannii clinical (A. baumannii; Strain No. MP576): >64 µg/mL; MIC A. baumannii clinical (A. baumannii; Strain No. MP577): 16 µg/mL (≈ 16.8 µM); MIC P. aeruginosa ATCC27853 (P. aeruginosa; ATCC27853, Strain No. MP-3): 64 µg/mL (≈ 67.3 µM); MIC P. aeruginosa PAO1 (P. aeruginosa; PAO1, Strain No. MP-7): >64 µg/mL; MIC P. aeruginosa PAO1:mex (P. aeruginosa; PAO1:mex, Strain No. MP-8): 16 µg/mL (≈ 16.8 µM); MIC K. pneumoniae ATCC10031 (K. pneumoniae; ATCC10031, Strain No. MP-14): 4 µg/mL (≈ 4.21 µM); MIC K. pneumoniae clinical (K. pneumoniae; Strain No. MP546): 64 µg/mL (≈ 67.3 µM); MIC K. pneumoniae clinical (K. pneumoniae; Strain No. MP548): 32 µg/mL (≈ 33.6 µM); MIC E. coli ATCC25922 (E. coli; ATCC25922, Strain No. MP-4): 4 µg/mL (≈ 4.21 µM); MIC E. coli ATCC25922:tolC (E. coli; ATCC25922:tolC, Strain No. MP-9): 0.25 µg/mL (≈ 0.263 µM); MIC E. coli clinical (E. coli; clinical, Strain No. MP541): 8 µg/mL (≈ 8.41 µM); MIC E. coli clinical-cErm (E. coli; clinical-cErm, Strain No. MP532): >64 µg/mL; MIC S. aureus ATCC29213 (S. aureus; ATCC29213, Strain No. MP-12): 4 µg/mL (≈ 4.21 µM); MIC S. aureus ATCCBAA-977 (S. aureus; ATCCBAA-977, Strain No. MP-17): 4 µg/mL (≈ 4.21 µM); MIC S. aureus (MRSA) GISA USA600 (S. aureus; GISA USA600, Strain No. MP-619 UNT-120): >64 µg/mL; MIC S. aureus (MRSA) ST-228 cErm (S. aureus; ST-228 cErm, Strain No. MP-513): >64 µg/mL; MIC S. aureus (MRSA) USA100 (S. aureus; USA100, Strain No. MP-618 UNT-096): >64 µg/mL; MIC S. aureus (MRSA) USA300 (S. aureus; USA300, Strain No. MP-549): 4 µg/mL (≈ 4.21 µM); MIC S. aureus (MRSA) ermA phenotype (S. aureus; ermA phenotype, Strain No. MP-620 UNT-146): >64 µg/mL; MIC E. faecalis ATCC29212 (E. faecalis; ATCC29212, Strain No. MP-24): 1 µg/mL (≈ 1.05 µM); MIC E. faecalis van resistant (E. faecalis; van resistant, Strain No. UNT-039): >64 µg/mL
